For one assay, the system named is YT. Kind of assay: drug sensitivity score (viability inhibition); higher = more sensitive. Conditions: 72 h; IL2 2.5 ng/ml. Put shortly:
(§1)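 NK cell lines in complete RPMI with 2.5 ng/ml IL2 were added at 3 000 cells/well to 384-well drug plates holding 5-8 concentrations over a 10 000-fold range. After 72 h at 37 °C, 5% CO2, viability was read with CellTiter-Glo on a PHERAstar FS plate reader. Drug sensitivity score is an optimized area under the dose-response curve. The experiment was repeated twice.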

A further assay deals with NK-92. The assay is described as above. To be noted: 72 h; IL2 2.5 ng/ml. An outline of the steps: as §1
The test system of another assay is KAI3. Described as above. To be noted: 72 h; IL2 2.5 ng/ml. Put shortly:
as §1

Another assay has as its system NKL. The description is as above. To be noted: 72 h; IL2 2.5 ng/ml. Put shortly:
as §1

For another assay, the system named is SNK6. Described as above. Conditions: 72 h; IL2 2.5 ng/ml. Put shortly:
as §1

A further assay concerns KHYG-1. Described as above. Conditions: 72 h; IL2 2.5 ng/ml. An outline of the steps:
as §1

A further assay relates to NK-YS. Described as above. Conditions: 72 h; IL2 2.5 ng/ml. Put shortly:
as §1

In a further assay the test system is HEK293-SIE STAT3 WT. Description: drug sensitivity score (inhibition of STAT3 luciferase reporter); higher = stronger inhibition. Conditions: 6 h; STAT3: WT; IL6 100 ng/ml. Put shortly:
(§2)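 Luciferase signal was measured with ONE-Glo on a PHERAstar FS after HEK293 cells carrying a sis-inducible element luciferase reporter responsive to STAT3 were exposed to drugs for 6 h at 5-8 concentrations spanning a 10 000-fold range. The cells had been stably transduced by lentivirus with wild-type or mutant STAT3 and plated at 10 000 cells/well in 384-well drug plates, with IL6 (100 ng/ml) added only to wild-type cells. The drug sensitivity score is an optimized area under the dose-response curve for reporter inhibition, and each value is the mean of two experiments.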
Background: In a reporter assay the amount or activity of a reporter protein is the signal.

The next assay has as its system HEK293-SIE STAT3 Y640F. The description is as above. Conditions: 6 h; IL6 0 ng/ml. Put shortly: as §2

As for `CO[C@H]1C[C@@H]2CC[C@@H](C)[C@@](O)(O2)C(=O)C(=O)N2CCCC[C@H]2C(=O)O[C@H]([C@H](C)C[C@@H]2CC[C@@H](OC(=O)C(C)(CO)CO)[C@H](OC)C2)CC(=O)[C@H](C)/C=C(\C)[C@@H](O)[C@@H](OC)C(=O)[C@H](C)C[C@H](C)/C=C/C=C/C=C/1C` [Temsirolimus], the drug sensitivity score with YT is 14 DSS; in the assay on NK-92, 4.18 DSS; in the assay with KAI3, 7.48 DSS; in the assay with NKL it was 20.6 DSS; in the assay on SNK6 it was 11.6 DSS; with KHYG-1, 10.1 DSS. The drug sensitivity score is 18.6 DSS in the assay with NK-YS, 8.55 DSS in the assay on HEK293-SIE STAT3 WT and 11.8 DSS in the assay on HEK293-SIE STAT3 Y640F.

Turning to `NS(=O)(=O)c1cccc2c1C(=O)c1cccc(O)c1C2=O` [LLL12], the drug sensitivity score in the assay with YT worked out at 18.2 DSS; in the assay on NK-92, 23.1 DSS; in the assay on KAI3 it was 18.9 DSS; in the assay on NKL, 24.9 DSS; in the assay with SNK6, 28 DSS; in the assay with KHYG-1, 22.9 DSS. In addition, the drug sensitivity score in the assay with NK-YS was determined as 15 DSS; with HEK293-SIE STAT3 WT, 17.1 DSS; in the assay on HEK293-SIE STAT3 Y640F, 12.4 DSS.

As for `CC1(C)CCC(CN2CCN(c3ccc(C(=O)NS(=O)(=O)c4ccc(NCC5CCOCC5)c([N+](=O)[O-])c4)c(Oc4cnc5[nH]ccc5c4)c3)CC2)=C(c2ccc(Cl)cc2)C1` [Venetoclax], the drug sensitivity score was found to be 11.6 DSS in the assay on YT; 3.59 DSS in the assay with NK-92; 29.2 DSS in the assay with KAI3; 11.9 DSS in the assay with NKL; 24.9 DSS in the assay on SNK6; 9.65 DSS in the assay with KHYG-1. For the same molecule, the drug sensitivity score stood at 10.3 DSS in the assay on NK-YS, 0.9 DSS in the assay on HEK293-SIE STAT3 WT and 1.5 DSS with HEK293-SIE STAT3 Y640F.

Take `C=CCn1c(=O)c2cnc(Nc3ccc(N4CCN(C)CC4)cc3)nc2n1-c1cccc(C(C)(C)O)n1` [MK1775]: the drug sensitivity score in the assay on YT was determined as 19.8 DSS; in the assay on NK-92 it was 23 DSS; in the assay with KAI3, 19.9 DSS; in the assay with NKL, 22.5 DSS; with SNK6, 19.7 DSS; in the assay on KHYG-1, 24.5 DSS. In addition, the drug sensitivity score in the assay on NK-YS is 20.5 DSS; in the assay on HEK293-SIE STAT3 WT it was 9.88 DSS; in the assay with HEK293-SIE STAT3 Y640F, 8.87 DSS.

For the molecule `O=S(=O)(c1cccc2cnccc12)N1CCCNCC1` [Fasudil], the drug sensitivity score in the assay on YT amounted to 1.44 DSS; with NK-92 it was 2.52 DSS; in the assay on KAI3, 2.61 DSS; in the assay on NKL, 0.632 DSS; in the assay with SNK6, 0.11 DSS; in the assay with KHYG-1, 1.2 DSS. The drug sensitivity score was found to be 0.1 DSS in the assay with NK-YS, 1.9 DSS with HEK293-SIE STAT3 WT and 0 DSS with HEK293-SIE STAT3 Y640F.
